The values below come from ChEMBL document CHEMBL1152909, “Low molecular weight non-peptide mimics of omega-conotoxin GVIA” (Bioorg Med Chem Lett, 2009).

Active and inactive are the calls of the source. The calls are words filed in the database; no cut-off is given here.

Chain of Voltage-dependent N-type calcium channel subunit alpha-1B (Rattus norvegicus) (Q02294 whole entry, looked up): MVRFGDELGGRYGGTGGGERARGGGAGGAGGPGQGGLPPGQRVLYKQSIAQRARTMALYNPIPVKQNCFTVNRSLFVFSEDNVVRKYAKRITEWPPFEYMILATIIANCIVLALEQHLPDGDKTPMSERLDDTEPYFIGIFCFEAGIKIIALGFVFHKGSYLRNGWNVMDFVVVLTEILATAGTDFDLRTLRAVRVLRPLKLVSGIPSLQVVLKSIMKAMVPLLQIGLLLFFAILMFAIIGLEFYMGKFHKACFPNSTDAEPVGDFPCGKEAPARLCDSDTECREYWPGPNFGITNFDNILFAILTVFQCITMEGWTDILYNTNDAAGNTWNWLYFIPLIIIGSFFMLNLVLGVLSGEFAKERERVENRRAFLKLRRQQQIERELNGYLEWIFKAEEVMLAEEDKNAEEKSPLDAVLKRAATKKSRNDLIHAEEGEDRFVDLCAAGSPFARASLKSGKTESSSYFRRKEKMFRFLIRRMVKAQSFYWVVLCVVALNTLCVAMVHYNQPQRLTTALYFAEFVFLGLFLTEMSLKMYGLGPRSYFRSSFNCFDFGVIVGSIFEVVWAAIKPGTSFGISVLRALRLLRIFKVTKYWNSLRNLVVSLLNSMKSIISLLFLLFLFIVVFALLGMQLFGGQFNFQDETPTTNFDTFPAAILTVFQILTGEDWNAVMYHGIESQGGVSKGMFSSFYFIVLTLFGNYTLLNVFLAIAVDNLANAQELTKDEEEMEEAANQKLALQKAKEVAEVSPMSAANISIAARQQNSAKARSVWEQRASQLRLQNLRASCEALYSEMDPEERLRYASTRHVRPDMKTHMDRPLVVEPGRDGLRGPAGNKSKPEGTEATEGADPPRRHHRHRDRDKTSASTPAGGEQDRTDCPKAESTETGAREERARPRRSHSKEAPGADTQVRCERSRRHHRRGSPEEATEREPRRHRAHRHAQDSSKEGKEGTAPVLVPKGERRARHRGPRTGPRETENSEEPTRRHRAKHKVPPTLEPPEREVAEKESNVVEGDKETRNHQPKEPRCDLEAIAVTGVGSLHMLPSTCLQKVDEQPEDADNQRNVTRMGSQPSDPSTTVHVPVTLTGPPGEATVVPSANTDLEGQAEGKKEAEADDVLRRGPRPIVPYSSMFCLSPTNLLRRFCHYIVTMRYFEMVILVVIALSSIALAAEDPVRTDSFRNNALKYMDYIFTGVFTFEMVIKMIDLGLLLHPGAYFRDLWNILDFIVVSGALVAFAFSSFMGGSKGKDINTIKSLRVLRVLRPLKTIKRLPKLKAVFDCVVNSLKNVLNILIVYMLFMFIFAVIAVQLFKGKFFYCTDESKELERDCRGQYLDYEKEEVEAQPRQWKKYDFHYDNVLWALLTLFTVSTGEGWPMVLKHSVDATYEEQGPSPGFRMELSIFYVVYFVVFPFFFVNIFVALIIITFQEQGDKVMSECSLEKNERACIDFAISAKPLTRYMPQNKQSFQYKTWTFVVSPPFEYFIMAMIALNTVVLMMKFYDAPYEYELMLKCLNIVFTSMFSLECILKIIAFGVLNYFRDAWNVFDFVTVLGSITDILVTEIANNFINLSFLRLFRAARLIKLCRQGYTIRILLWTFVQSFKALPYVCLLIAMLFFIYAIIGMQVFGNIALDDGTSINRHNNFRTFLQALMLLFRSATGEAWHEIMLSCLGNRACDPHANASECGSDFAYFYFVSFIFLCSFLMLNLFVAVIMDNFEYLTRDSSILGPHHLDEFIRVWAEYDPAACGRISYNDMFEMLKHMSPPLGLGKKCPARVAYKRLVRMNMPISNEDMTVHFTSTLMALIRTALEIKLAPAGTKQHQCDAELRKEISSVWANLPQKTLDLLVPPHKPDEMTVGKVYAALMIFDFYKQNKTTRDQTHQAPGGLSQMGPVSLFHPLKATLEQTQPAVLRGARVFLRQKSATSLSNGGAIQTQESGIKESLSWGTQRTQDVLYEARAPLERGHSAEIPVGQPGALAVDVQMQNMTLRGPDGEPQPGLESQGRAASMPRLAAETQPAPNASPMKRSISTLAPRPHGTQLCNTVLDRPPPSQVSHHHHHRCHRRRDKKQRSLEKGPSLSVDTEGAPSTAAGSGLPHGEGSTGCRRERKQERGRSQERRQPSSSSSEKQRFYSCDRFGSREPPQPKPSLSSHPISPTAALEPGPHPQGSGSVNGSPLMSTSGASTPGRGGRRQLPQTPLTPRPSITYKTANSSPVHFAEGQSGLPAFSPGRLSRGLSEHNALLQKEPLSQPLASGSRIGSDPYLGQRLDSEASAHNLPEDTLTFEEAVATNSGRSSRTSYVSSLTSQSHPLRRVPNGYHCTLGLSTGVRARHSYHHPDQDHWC
Chain of Voltage-dependent N-type calcium channel subunit alpha-1B (Q02294 whole entry): as the sequence (Q02294 whole entry, looked up) above

One test has as its target Voltage-dependent N-type calcium channel subunit alpha-1B (Rattus norvegicus) (UniProt Q02294). As to the kind of experiment: (§1) Inhibition of rat neuronal Cav2.2 channel.
For the compound `Oc1ccc(CNc2nc3ccc(Oc4ccccc4)cc3s2)cc1`, the outcome was inactive. On the same count and under the same terms, the result for `CC(C)(C)OC(=O)NCCCOc1ccc(CNc2nc3ccc(Oc4ccccc4)cc3s2)cc1` reads “inactive”; that for `[N-]=[N+]=NCCCOc1ccc(CNc2nc3ccc(Oc4ccccc4)cc3s2)cc1`, “inactive”; that for `ClCCCOc1ccc(CNc2nc3ccc(Oc4ccccc4)cc3s2)cc1`, “inactive”.

The next test addresses Voltage-dependent N-type calcium channel subunit alpha-1B (Rattus norvegicus, UniProt Q02294). The test is described as §1.
In the case of `NCCCOc1ccccc1C(=O)N(Cc1ccc(OCCCN=C(N)N)cc1)c1nc2ccc(Oc3ccc(O)cc3)cc2s1`, the half-maximal effective concentration (EC50) (usually the concentration at which the effect is half-maximal) came to 1.78 µM. The same measure, in the same setting: the result for `NCCCOc1ccc(CN(C(=O)c2ccccc2OCCCN)c2nc3ccc(Oc4ccc(O)cc4)cc3s2)cc1` reads 3.18 µM; that for `NC(N)=NCCCOc1ccc(CNCC(c2ccccc2)c2ccccc2)cc1`, 12 µM. Consider `NCCCOc1ccc(CNc2ccc(Oc3ccccc3)cc2)cc1`, for which the 50% effective concentration (EC50) is 34 µM. The same measure, in the same setting: the result for `NCCCOc1ccccc1C(=O)Nc1nc2ccc(Oc3ccccc3)cc2s1` reads greater than 100 µM.

On to `NC(N)=NCCCOc1ccc(CNc2nc3ccc(Oc4ccccc4)cc3s2)cc1`, for which the EC50 stood at 5.8 µM. On the same count and under the same terms, the result for `NCCCOc1ccc(CNC(c2ccccc2)c2ccccc2)cc1` reads greater than 100 µM; that for `NC(N)=NCCCOc1ccc(CNC(c2ccccc2)c2ccccc2)cc1`, 23 µM; that for `NC(N)=NCCCOc1ccc(CNc2ccc(Oc3ccccc3)cc2)cc1`, 21 µM. Same read-out and setting: the result for `NCCCOc1ccccc1C(=O)N(Cc1ccc(OCCCN=C(N)N)cc1)c1nc2ccc(Oc3ccccc3)cc2s1` reads 3.08 µM. On the same count and under the same terms, the result for `NC(N)=NCCCOc1ccccc1C(=O)Nc1nc2ccc(Oc3ccccc3)cc2s1` reads 33 µM.

On to `NCCCOc1ccc(CNc2nc3ccc(Oc4ccccc4)cc3s2)cc1`, for which the half-maximal effective concentration (EC50) was 76 µM. On the same count and under the same terms, the result for `NCCCOc1ccc(CNCC(c2ccccc2)c2ccccc2)cc1` reads greater than 100 µM.
